Test results as given in publication PMC4039129, “Specificity and Promiscuity at the Branch Point in Gentamicin Biosynthesis” (Chemistry & Biology, 2014).

Experiments:
[1] = target: T1, GenQ (VM_GenQ) (Micromonospora echinospora, UniProt Q70KE0); experiment: LC-ESI-MS, […]'-dehydrogenation; format: biochemical; details: 200 uM substrate, 16 uM enzyme, Tris-HCl pH 8.0, 30 °C overnight
T1 construct: gene gacJ; full length with 38 extra N-terminal residues absent in original annotation; N-His6 tag, pET28a(+), E. coli BL21(DE3); contains FAD
T1 sequence (Q70KE0 entry or part of it): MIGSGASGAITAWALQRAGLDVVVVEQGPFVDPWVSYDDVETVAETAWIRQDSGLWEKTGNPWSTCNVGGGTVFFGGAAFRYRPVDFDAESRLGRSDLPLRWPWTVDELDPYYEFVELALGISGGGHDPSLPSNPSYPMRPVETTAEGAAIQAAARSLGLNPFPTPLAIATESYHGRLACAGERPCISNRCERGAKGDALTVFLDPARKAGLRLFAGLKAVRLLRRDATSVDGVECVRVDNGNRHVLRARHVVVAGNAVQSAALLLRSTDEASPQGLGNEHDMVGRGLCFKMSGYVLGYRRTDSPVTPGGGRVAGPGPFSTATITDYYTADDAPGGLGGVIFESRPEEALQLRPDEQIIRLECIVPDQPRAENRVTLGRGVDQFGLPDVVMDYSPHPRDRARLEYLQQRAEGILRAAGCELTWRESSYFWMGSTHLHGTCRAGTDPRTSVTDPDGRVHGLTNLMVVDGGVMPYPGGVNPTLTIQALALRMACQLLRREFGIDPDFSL

[2] = target: T2, GenB1 (Micromonospora echinospora, UniProt Q70KD9); experiment: LC-ESI-MS, GenQ-coupled transamination; format: biochemical; details: amino donor 2 mM; 6'-DOG made in situ from 200 uM G418 by 16 uM GenQ; 20 uM GenB1; Tris-HCl pH 8.0, 30 °C
T2 construct: gene gacK; N-His6-tagged, pET28a(+), E. coli BL21(DE3); contains PLP
T2 sequence (Q70KD9 entry or part of it): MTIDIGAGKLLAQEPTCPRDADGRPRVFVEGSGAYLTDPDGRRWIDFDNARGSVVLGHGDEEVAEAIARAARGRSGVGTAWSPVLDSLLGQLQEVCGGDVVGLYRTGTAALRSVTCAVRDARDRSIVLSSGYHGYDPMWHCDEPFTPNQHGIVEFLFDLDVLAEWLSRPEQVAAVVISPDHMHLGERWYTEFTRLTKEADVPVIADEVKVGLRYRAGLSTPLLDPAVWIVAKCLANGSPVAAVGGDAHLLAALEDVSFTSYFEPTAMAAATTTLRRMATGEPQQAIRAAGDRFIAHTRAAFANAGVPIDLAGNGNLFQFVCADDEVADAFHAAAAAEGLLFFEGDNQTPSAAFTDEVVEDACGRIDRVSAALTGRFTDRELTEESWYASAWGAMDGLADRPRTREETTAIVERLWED

[3] = target: T3, GenB2 (Micromonospora echinospora, UniProt Q70KE6); experiment: LC-ESI-MS, […]'-epimerization; format: biochemical; details: 200 uM substrate, 20 uM enzyme, Tris-HCl pH 8.0, 30 °C overnight; reversible
T3 construct: gene gacE; N-His6-tagged, pET28a(+), E. coli BL21(DE3); contains PLP
T3 sequence (Q70KE6 entry or part of it): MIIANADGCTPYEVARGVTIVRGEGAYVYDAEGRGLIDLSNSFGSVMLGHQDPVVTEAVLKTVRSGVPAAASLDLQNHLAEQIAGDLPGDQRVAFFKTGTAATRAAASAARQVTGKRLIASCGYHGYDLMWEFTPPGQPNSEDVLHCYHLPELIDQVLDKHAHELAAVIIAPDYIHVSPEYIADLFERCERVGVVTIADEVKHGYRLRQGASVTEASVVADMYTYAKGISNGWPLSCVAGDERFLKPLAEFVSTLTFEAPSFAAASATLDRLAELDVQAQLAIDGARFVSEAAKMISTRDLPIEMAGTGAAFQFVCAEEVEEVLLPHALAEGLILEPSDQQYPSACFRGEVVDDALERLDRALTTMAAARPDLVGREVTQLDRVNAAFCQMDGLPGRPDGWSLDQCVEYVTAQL

[4] = target: T4, GenB3 (Micromonospora echinospora, UniProt Q2MG50); experiment: UV-visible absorption spectrum; format: binding; details: co-purified cofactor
T4 construct: N-His6-tagged, pET28a(+), E. coli BL21(DE3); contains PLP
T4 sequence (Q2MG50 entry or part of it): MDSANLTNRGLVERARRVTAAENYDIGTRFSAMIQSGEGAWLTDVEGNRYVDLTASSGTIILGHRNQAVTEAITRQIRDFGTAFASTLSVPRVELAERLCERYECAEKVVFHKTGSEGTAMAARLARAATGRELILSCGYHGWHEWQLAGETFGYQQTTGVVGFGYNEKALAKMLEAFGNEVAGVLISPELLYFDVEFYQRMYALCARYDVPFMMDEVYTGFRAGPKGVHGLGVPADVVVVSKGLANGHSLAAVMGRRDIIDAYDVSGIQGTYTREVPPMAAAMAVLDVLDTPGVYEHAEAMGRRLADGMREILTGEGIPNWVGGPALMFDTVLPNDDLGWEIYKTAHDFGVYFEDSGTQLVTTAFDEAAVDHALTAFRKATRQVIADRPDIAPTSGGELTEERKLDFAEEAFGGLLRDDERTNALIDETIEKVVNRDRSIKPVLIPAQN

[5] = target: T5, GenB4 (Micromonospora echinospora, UniProt Q6QVT7); experiment: UV-visible absorption spectrum; format: binding; details: co-purified cofactor
T5 construct: gene gntH; N-His6-tagged, pET28a(+), E. coli BL21(DE3); contains PLP
T5 sequence (Q6QVT7 entry or part of it): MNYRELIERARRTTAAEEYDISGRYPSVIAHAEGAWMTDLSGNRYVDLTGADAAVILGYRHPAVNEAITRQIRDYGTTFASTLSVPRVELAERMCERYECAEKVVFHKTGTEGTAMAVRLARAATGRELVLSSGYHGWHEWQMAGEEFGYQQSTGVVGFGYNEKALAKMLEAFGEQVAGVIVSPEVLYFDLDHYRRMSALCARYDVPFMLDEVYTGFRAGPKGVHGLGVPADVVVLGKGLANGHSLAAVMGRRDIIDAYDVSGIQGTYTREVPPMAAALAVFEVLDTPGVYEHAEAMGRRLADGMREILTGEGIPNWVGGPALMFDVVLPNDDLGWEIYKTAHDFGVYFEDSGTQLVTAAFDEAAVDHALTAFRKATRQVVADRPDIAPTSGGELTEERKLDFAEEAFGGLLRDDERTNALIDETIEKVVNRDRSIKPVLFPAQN

[6] = target: T2, GenB1; experiment: UV-visible absorption spectrum; format: binding; details: co-purified cofactor
[7] = target: T3, GenB2; experiment: UV-visible absorption spectrum; format: binding; details: co-purified cofactor

CN[C@@H]1[C@@H](O)[C@@H](O[C@@H]2[C@@H](O)[C@H](O[C@H]3O[C@H](CO)[C@@H](O)[C@H](O)[C@H]3N)[C@@H](N)C[C@H]2N)OC[C@]1(C)O (stereo in doubt) [gentamicin X2]
LC-ESI-MS, 6'-dehydrogenation [1]: GenQ also showed activity with X2 as the substrate

CSCC[C@H](N)C(=O)O [L-methionine]
LC-ESI-MS, GenQ-coupled transamination [2]: conversion of G418 to JI-20B, with L-methionine as the most effective amino donor

CN[C@@H]1[C@@H](O)[C@@H](O[C@@H]2[C@@H](O)[C@H](O[C@H]3O[C@H]([C@@H](C)N)CC[C@H]3N)[C@@H](N)C[C@H]2N)OC[C@]1(C)O [gentamicin C2]
LC-ESI-MS, 6'-epimerization [3]: GenB2 did catalyze the epimerization of C2

CN[C@@H]1[C@@H](O)[C@@H](O[C@@H]2[C@@H](O)[C@H](O[C@H]3O[C@H]([C@H](C)N)CC[C@H]3N)[C@@H](N)C[C@H]2N)OC[C@]1(C)O [gentamicin C2a]
LC-ESI-MS, 6'-epimerization [3]: when C2a was used as the substrate the reverse reaction was also detected

Cc1ncc(COP(=O)(O)O)c(C=O)c1O [pyridoxal-5′-phosphate]
UV-visible absorption spectrum [4]: UV-visible absorption spectra typical of aminotransferases containing bound pyridoxal-5′-phosphate cofactor
UV-visible absorption spectrum [5]: UV-visible absorption spectra typical of aminotransferases containing bound pyridoxal-5′-phosphate cofactor
UV-visible absorption spectrum [6]: UV-visible absorption spectra typical of aminotransferases containing bound pyridoxal-5′-phosphate cofactor
UV-visible absorption spectrum [7]: UV-visible absorption spectra typical of aminotransferases containing bound pyridoxal-5′-phosphate cofactor
